Measurements taken from patent publication US10253081B2, “Glucagon analogues” (Zealand Pharma A/S, priority 2012, dated 2019).
Where two headings read alike, the source gives them in different places. *1 amine or outer side, *2 acyl side, *3 side chain or, on linkers, in order; H or OH if unused. Where a SMILES comes first, the peptide text is derived from it. Side-chain parts run from the residue outwards. [ ]: non-standard residue; d: D form. The star is where a group is joined. γGlu = O=C(O)[C@H](CCC(=O)[*:2])N[*:1]; Palmitoyl = CCCCCCCCCCCCCCCC(=O)*; Aib = CC(C)(N)C(=O)O

What was measured:
[1] = Pharmacokinetic parameters after subcutaneous and intravenous administration to mice; format: in vivo; conditions: male, mouse, plasma, 20 nmol/kg, C57Bl/6J mice; for half-life: read-out: Terminal half life (converted); for MRT: read-out: Mean Residence Time
Procedure: Pharmacokinetic parameters of the test compounds were determined after subcutaneous and intravenous administration to C57Bl/6J mice.
8 week old male C57Bl/6J mice were obtained from Taconic (Denmark) weighing approximately 20-25 g at time of arrival at the test facility. The mice were caged in European standard cages type III with light cycle of 12-hour dark and 12-hour light (lights on 06.00). Both diet, Altromin 1324 (Altromin, Germany), and water was administered ad libitum during the whole experimental period. The 8-11 week animals were imported to the laboratory at least 7 days before the start up of the experimental procedure in order to assure proper acclimatization. After sampling the mice were euthanized by cervical dislocation.
The compounds were first dissolved in 0.096% aqueous ammonia to a nominal concentration of 2 mg/ml, and then diluted to the desired dosing strength (4 μM) in sterile PBS containing 25 mM phosphate buffer, pH 7.4. Subcutaneous and intravenous injections corresponding to 20 nmol/kg were given. The GLP-1-glucagon dual agonists were administered for subcutaneous dosing in the neck region and via a lateral tail vein for intravenous dosing.
Blood samples (250 μl) were collected from the periorbital plexus at time points 0.5, 2, 4, 6, 12, 16, 20, 24 h for subcutaneous and 10, 30 min, 3, 6, 12, 18, 24 h for intravenous administration into ice-chilled K3EDTA tubes and centrifuged for 5 minutes at 4° C. within 20 minutes of sampling. Plasma (>100 μl) was separated to ice-chilled Micronic tubes, immediately frozen, and kept at −70° C. until analysed for plasma concentration for the respective GLP-1-glucagon compound using LC-MS/MS. Individual plasma concentration-time profiles were analysed by a non-compartmental approach in WinNonLin v6.3 (Pharsight inc, Mountain View, Calif., USA), and the resulting pharmacokinetic parameters determined.

[2] = target: T1, endogenous GLP-1 receptors (Mus musculus, UniProt O35659); test: Agonistic activity on endogenous GLP-1 receptor (cAMP, murine insulinoma cell line); format: cell-based; conditions: intracellular cAMP, 15 minutes at 26° C.; read-out: EC50 GLP-1R (murine insulinoma cells)
T1 construct: Agonistic activity of the test compounds on endogenous GLP-1 receptors; endogenous in cells
T1 sequence (O35659 22-463): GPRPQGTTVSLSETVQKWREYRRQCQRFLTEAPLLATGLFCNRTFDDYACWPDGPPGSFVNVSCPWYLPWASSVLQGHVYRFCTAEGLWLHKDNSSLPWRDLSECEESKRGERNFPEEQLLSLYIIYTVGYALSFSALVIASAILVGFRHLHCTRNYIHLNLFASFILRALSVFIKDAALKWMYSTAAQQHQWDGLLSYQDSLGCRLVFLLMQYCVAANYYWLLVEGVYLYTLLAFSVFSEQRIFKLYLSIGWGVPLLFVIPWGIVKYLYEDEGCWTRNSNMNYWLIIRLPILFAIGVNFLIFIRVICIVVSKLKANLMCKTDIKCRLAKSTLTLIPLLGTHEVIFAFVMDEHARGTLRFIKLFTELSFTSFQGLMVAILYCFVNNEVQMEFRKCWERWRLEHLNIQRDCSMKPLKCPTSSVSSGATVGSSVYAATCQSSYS
Method in brief: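 Murine insulinoma cells were exposed 15 min at 26° C in KRBH with 0.1% DMSO to compound or GLP-1 ([…]), then cAMP was measured by AlphaScreen against a standard curve, in quadruplicate. pEC50 came from curve fits; % CTL was normalised to the maximal GLP-1 cAMP response.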

SMILES | clearance ([1]; IV) [mL/min/kg] | half-life ([1]; IV) [h] | Tmax ([1]; SC) [h] | bioavailability ([1]; SC) [%] | MRT ([1]; SC) [h] | half-life ([1]; SC) [h] | EC50 [2] [nM]
CCCCCCCCCCCCCCCC(=O)N[C@@H](CCC(=O)NCCCC[C@H](NC(=O)[C@H](CCC(=O)O)NC(=O)[C@H](CC(=O)O)NC(=O)[C@H](CC(C)C)NC(=O)[C@H](Cc1ccc(O)cc1)NC(=O)[C@H](CCCCN)NC(=O)[C@H](CO)NC(=O)[C@H](Cc1ccc(O)cc1)NC(=O)[C@H](CC(=O)O)NC(=O)[C@H](CO)NC(=O)[C@@H](NC(=O)[C@H](Cc1ccccc1)NC(=O)[C@@H](NC(=O)CNC(=O)[C@H](CCC(N)=O)NC(=O)C(C)(C)NC(=O)[C@@H](N)Cc1c[nH]cn1)[C@@H](C)O)[C@@H](C)O)C(=O)N[C@@H](C)C(=O)N[C@@H](C)C(=O)N[C@@H](CCCCN)C(=O)N[C@@H](CC(=O)O)C(=O)N[C@@H](Cc1ccccc1)C(=O)N[C@H](C(=O)N[C@@H](CCC(=O)O)C(=O)N[C@@H](Cc1c[nH]c2ccccc12)C(=O)N[C@@H](CC(C)C)C(=O)N[C@@H](CC(C)C)C(=O)N[C@@H](CO)C(=O)N[C@@H](C)C(N)=O)[C@@H](C)CC)C(=O)O [Compound 4, H-H-Aib-QGTFTSDYSKYLDE-K(Hexadecanoyl-isoGlu)-AAKDFIEWLLSA-NH2] (H-H[Aib]QGTFTSDYSKYLDEK([γGlu-Palmitoyl])AAKDFIEWLLSA-NH2) | 0.185 | 7.4 | 4 | 53 | 12.5 | 6.4 | 0.95
CCCCCCCCCCCCCCCC(=O)N[C@@H](CCC(=O)NCCCC[C@H](NC(=O)[C@H](CO)NC(=O)[C@H](CC(=O)O)NC(=O)[C@H](CC(C)C)NC(=O)[C@H](Cc1ccc(O)cc1)NC(=O)[C@H](CCCCN)NC(=O)[C@H](CO)NC(=O)[C@H](Cc1ccc(O)cc1)NC(=O)[C@H](CC(=O)O)NC(=O)[C@H](CO)NC(=O)[C@@H](NC(=O)[C@H](Cc1ccccc1)NC(=O)[C@@H](NC(=O)CNC(=O)[C@H](CCC(N)=O)NC(=O)C(C)(C)NC(=O)[C@@H](N)Cc1c[nH]cn1)[C@@H](C)O)[C@@H](C)O)C(=O)N[C@@H](C)C(=O)N[C@@H](C)C(=O)N[C@@H](Cc1c[nH]cn1)C(=O)N[C@@H](CC(=O)O)C(=O)N[C@@H](Cc1ccccc1)C(=O)N[C@H](C(=O)N[C@@H](CCC(=O)O)C(=O)N[C@@H](Cc1c[nH]c2ccccc12)C(=O)N[C@@H](CC(C)C)C(=O)N[C@@H](CC(C)C)C(=O)N[C@@H](CO)C(=O)O)C(C)C)C(=O)O [Compound 1, H-H-Aib-QGTFTSDYSKYLDS-K(Hexadecanoyl-isoGlu)-AAHDFVEWLLS-OH] (H-H[Aib]QGTFTSDYSKYLDSK([γGlu-Palmitoyl])AAHDFVEWLLS-OH) | 0.17 | 5.2 | 4 | 52 | 12.6 | 6.2 | 1.47
CCCCCCCCCCCCCCCC(=O)N[C@@H](CCC(=O)NCCCC[C@H](NC(=O)[C@H](CO)NC(=O)[C@H](CC(=O)O)NC(=O)[C@H](CC(C)C)NC(=O)[C@H](Cc1ccc(O)cc1)NC(=O)[C@H](CCCCN)NC(=O)[C@H](CO)NC(=O)[C@H](Cc1ccc(O)cc1)NC(=O)[C@H](CC(=O)O)NC(=O)[C@H](CO)NC(=O)[C@@H](NC(=O)[C@H](Cc1ccccc1)NC(=O)[C@@H](NC(=O)CNC(=O)[C@H](CCC(N)=O)NC(=O)[C@H](CO)NC(=O)[C@@H](N)Cc1c[nH]cn1)[C@@H](C)O)[C@@H](C)O)C(=O)N[C@@H](C)C(=O)N[C@@H](C)C(=O)N[C@@H](Cc1c[nH]cn1)C(=O)N[C@@H](CC(=O)O)C(=O)N[C@@H](Cc1ccccc1)C(=O)N[C@H](C(=O)N[C@@H](CCC(=O)O)C(=O)N[C@@H](Cc1c[nH]c2ccccc12)C(=O)N[C@@H](CC(C)C)C(=O)N[C@@H](CC(C)C)C(=O)N[C@@H](CCCNC(=N)N)C(=O)O)C(C)C)C(=O)O [Compound 9, H-HSQGTFTSDYSKYLDS-K(Hexadecanoyl-isoGlu)-AAHDFVEWLLR-OH] (H-HSQGTFTSDYSKYLDSK([γGlu-Palmitoyl])AAHDFVEWLLR-OH) | 0.638 | 0.9 | 2 | 34 | 4.7 | 2.9 | 1.02

Now those with a lower EC50 [2], led by results:

clearance ([1]; IV) [mL/min/kg] | half-life ([1]; IV) [h] | Tmax ([1]; SC) [h] | bioavailability ([1]; SC) [%] | MRT ([1]; SC) [h] | half-life ([1]; SC) [h] | EC50 [2] [nM] | SMILES
0.185 | 4 | 4 | 81 | 7.6 | 3.8 | 0.54 | CCCCCCCCCCCCCCCC(=O)N[C@@H](CCC(=O)NCCCC[C@H](NC(=O)[C@H](CO)NC(=O)[C@H](CC(=O)O)NC(=O)[C@H](CC(C)C)NC(=O)[C@H](Cc1ccc(O)cc1)NC(=O)[C@H](CCCCN)NC(=O)[C@H](CO)NC(=O)[C@H](Cc1ccc(O)cc1)NC(=O)[C@H](CC(=O)O)NC(=O)[C@H](CO)NC(=O)[C@@H](NC(=O)[C@H](Cc1ccccc1)NC(=O)[C@@H](NC(=O)CNC(=O)[C@H](CCC(N)=O)NC(=O)C(C)(C)NC(=O)[C@@H](N)Cc1c[nH]cn1)[C@@H](C)O)[C@@H](C)O)C(=O)N[C@@H](C)C(=O)N[C@@H](C)C(=O)N[C@@H](Cc1c[nH]cn1)C(=O)N[C@@H](CC(=O)O)C(=O)N[C@@H](Cc1ccccc1)C(=O)N[C@H](C(=O)N[C@@H](CCC(=O)O)C(=O)N[C@@H](Cc1c[nH]c2ccccc12)C(=O)N[C@@H](CC(C)C)C(=O)N[C@@H](CCC(=O)O)C(=O)N[C@@H](CO)C(=O)N[C@@H](C)C(N)=O)C(C)C)C(=O)O [Compound 5, H-H-Aib-QGTFTSDYSKYLDS-K(Hexadecanoyl-isoGlu)-AAHDFVEWLESA-NH2] (H-H[Aib]QGTFTSDYSKYLDSK([γGlu-Palmitoyl])AAHDFVEWLESA-NH2)
0.312 | 4.8 | 2 | 80 | 7.5 | 5 | 0.33 | CCCCCCCCCCCCCCCC(=O)N[C@@H](CCC(=O)NCCCC[C@H](NC(=O)[C@H](CO)NC(=O)[C@H](CC(=O)O)NC(=O)[C@H](CC(C)C)NC(=O)[C@H](Cc1ccc(O)cc1)NC(=O)[C@H](CCCCN)NC(=O)[C@H](CO)NC(=O)[C@H](Cc1ccc(O)cc1)NC(=O)[C@H](CC(=O)O)NC(=O)[C@H](CO)NC(=O)[C@@H](NC(=O)[C@H](Cc1ccccc1)NC(=O)[C@@H](NC(=O)CNC(=O)[C@H](CCC(N)=O)NC(=O)C(C)(C)NC(=O)[C@@H](N)Cc1c[nH]cn1)[C@@H](C)O)[C@@H](C)O)C(=O)N[C@@H](C)C(=O)N[C@@H](C)C(=O)N[C@@H](CCC(=O)O)C(=O)N[C@@H](CC(=O)O)C(=O)N[C@@H](Cc1ccccc1)C(=O)N[C@H](C(=O)N[C@@H](CCC(=O)O)C(=O)N[C@@H](Cc1c[nH]c2ccccc12)C(=O)N[C@@H](CC(C)C)C(=O)N[C@@H](CCC(=O)O)C(=O)N[C@@H](CO)C(=O)N[C@@H](C)C(N)=O)C(C)C)C(=O)O [Compound 16, H-H-Aib-QGTFTSDYSKYLDS-K(Hexadecanoyl-isoGlu)-AAEDFVEWLESA-NH2] (H-H[Aib]QGTFTSDYSKYLDSK([γGlu-Palmitoyl])AAEDFVEWLESA-NH2)
